US20230233569A1 (Revolution Medicines, Inc., priority 2020, published 2023)

Tests used:
[1] = test system: AKT1/2/3 (Ser473) phosphorylation (mTORC2) in MDA-MB-468 cells; assay: Cell based AlphaLISA assay, mTOR kinase cellular assay: inhibition of p-Akt (S473) in MDA-MB-468 cells; conditions: Homo sapiens, read-out: pIC50 for Inhibition of mTORC1 and mTORC2 Substarte Phosphorylation p-AKT1/2/3-(S473) (converted)
Outline: (§1)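 MDA-MB-468 cells treated with compound at 0.017-1,000 nM for two to four hours at 37° C, then lysed. Phospho-AKT1/2/3 S473, 4EBP1 T37/46 and P70S6K T389 quantified by AlphaLISA SureFire Ultra in duplicate; IC50 from normalized regression with control-based normalization.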

[2] = test system: P70S6K (Thr389) phosphorylation (mTORC1) in MDA-MB-468 cells; assay: Cell based AlphaLISA assay, mTOR kinase cellular assay: inhibition of p-P70S6K (T389) in MDA-MB-468 cells; conditions: Homo sapiens, read-out: pIC50 for Inhibition of mTORC1 and mTORC2 Substarte Phosphorylation p-P70S6K-(T389) (converted)
Description: Cell Based AlphaLISA Assays for Determining IC50 For Inhibition of P-Akt (S473), P-4E-BP1 (T37/46), and P-P70S6K (T389) in MDA-MB-468 Cells
mTOR Kinase Cellular Assay
To measure functional activity of mTORC1 and mTORC2 in cells the phosphorylation of 4EBP1 (Thr37/46) and P70S6K (Thr389), and AKT1/2/3 (Ser473) was monitored using AlphaLisa SureFire Ultra Kits (Perkin Elmer). MDA-MB-468 cells (ATCC® HTB-132) were cultured in 96-well tissue culture plates and treated with compounds in the disclosure at concentrations varying from 0.017-1,000 nM for two to four hours at 37° C. Incubations were terminated by removal of the assay buffer and addition of lysis buffer provided with the assay kit. Samples were processed according to the manufacturer's instructions. The Alpha signal from the respective phosphoproteins was measured in duplicate using a microplate reader (Envision, Perkin-Elmer or Spectramax M5, Molecular Devices). Inhibitor concentration response curves were analyzed using normalized IC50 regression curve fitting with control based normalization.

[3] = test system: 4EBP1 (Thr37/46) phosphorylation (mTORC1) in MDA-MB-468 cells; assay: Cell based AlphaLISA assay, mTOR kinase cellular assay: inhibition of p-4E-BP1 (T37/46) in MDA-MB-468 cells; conditions: Homo sapiens, read-out: pIC50 for Inhibition of mTORC1 and mTORC2 Substarte Phosphorylation p-4E-BP1-(T37/46) (converted)
Outline: as §1

| Compound | IC50 [1] [nM] | IC50 [2] [nM] | IC50 [3] [nM] |
| --- | --- | --- | --- |
| CO[C@H]1C[C@@H]2CC[C@@H](C)[C@@](O)(O2)C(=O)C(=O)N2CCCC[C@H]2C(=O)O[C@H]([C@H](C)C[C@@H]2CC[C@@H](OC(=O)N3CCc4nc(N5CCN(c6ncc(C(=O)N7CCN(c8ncc(C(=O)N9CCc%10cc(Cn%11nc(-c%12ccc%13oc(N)nc%13c%12)c%12c(N)ncnc%12%11)ccc%10C9)cn8)CC7)cn6)CC5)ncc4C3)[C@H](OC)C2)CC(=O)[C@H](C)/C=C(\C)[C@@H](O)[C@@H](OC)C(=O)[C@H](C)C[C@H](C)/C=C/C=C/C=C/1C [Example 62] | > 1000 | 1 to 10 | > 1000 |
| CO[C@H]1C[C@@H]2CC[C@@H](C)[C@@](O)(O2)C(=O)C(=O)N2CCCC[C@H]2C(=O)O[C@H]([C@H](C)C[C@@H]2CC[C@@H](OC(=O)NCc3cnc(N4CCN(C(=O)CCOCCOCCN5CCN(c6ncc(C(=O)N7CCc8cc(Cn9nc(-c%10cnc%11[nH]ccc%11c%10)c%10c(N)ncnc%109)ccc8C7)cn6)CC5)CC4)nc3)[C@H](OC)C2)CC(=O)[C@H](C)/C=C(\C)[C@@H](O)[C@@H](OC)C(=O)[C@H](C)C[C@H](C)/C=C/C=C/C=C/1C [Example 123] | 31.6 to 1000 | ≤ 1 | ≤ 3.16 |
| CO[C@H]1C[C@@H]2CC[C@@H](C)[C@@](O)(O2)C(=O)C(=O)N2CCCC[C@H]2C(=O)O[C@H]([C@H](C)C[C@@H]2CC[C@@H](OC(=O)NCCOCCOCCOCCOCCOCCOCCOCCOCCOCCOCCC(=O)N3CCC(n4nc(-c5cnc6[nH]ccc6c5)c5c(N)ncnc54)CC3)[C@H](OC)C2)CC(=O)[C@H](C)/C=C(\C)[C@@H](O)[C@@H](OC)C(=O)[C@H](C)C[C@H](C)/C=C/C=C/C=C/1C [Example 20] | ≤ 3.16 | ≤ 1 | ≤ 3.16 |
| CO[C@H]1C[C@@H]2CC[C@@H](C)[C@@](O)(O2)C(=O)C(=O)N2CCCC[C@H]2C(=O)O[C@H]([C@H](C)C[C@@H]2CC[C@@H](OC(=O)NCc3cnc(N4CCN(CCOCCN5CCN(c6ncc(C(=O)N7CCc8cc(Cn9nc(-c%10cnc%11[nH]ccc%11c%10)c%10c(N)ncnc%109)ccc8C7)cn6)CC5)CC4)nc3)[C@H](OC)C2)CC(=O)[C@H](C)/C=C(\C)[C@@H](O)[C@@H](OC)C(=O)[C@H](C)C[C@H](C)/C=C/C=C/C=C/1C [Example 127] | > 1000 | ≤ 1 | 3.16 to 31.6 |
| CO[C@H]1C[C@@H]2CC[C@@H](C)[C@@](O)(O2)C(=O)C(=O)N2CCCC[C@H]2C(=O)O[C@H]([C@H](C)C[C@@H]2CC[C@@H](OC(=S)NCc3cnc(N4CCN(C(=O)CCOCCN5CCN(c6ncc(C(=O)N7CCc8cc(Cn9nc(-c%10ccc%11oc(N)nc%11c%10)c%10c(N)ncnc%109)ccc8C7)cn6)CC5)CC4)nc3)[C@H](OC)C2)C[C@@H](O)[C@H](C)/C=C(\C)[C@@H](O)[C@@H](OC)C(=O)[C@H](C)C[C@H](C)/C=C/C=C/C=C/1C [Example 117] | 3.16 to 31.6 | ≤ 1 | ≤ 3.16 |
| CO[C@H]1C[C@@H]2CC[C@@H](C)[C@@](O)(O2)C(=O)C(=O)N2CCCC[C@H]2C(=O)O[C@H]([C@H](C)C[C@@H]2CC[C@@H](OC(=O)NCc3cnc(N4CCN(c5ncc(C(=O)NCCOCCOCCOCCOCCC(=O)N6CCc7cc(Cn8nc(-c9cnc%10[nH]ccc%10c9)c9c(N)ncnc98)ccc7C6)c(N)n5)CC4)nc3)[C@H](OC)C2)CC(=O)[C@H](C)/C=C(\C)[C@@H](O)[C@@H](OC)C(=O)[C@H](C)C[C@H](C)/C=C/C=C/C=C/1C [Example 108] | > 1000 | 1 to 10 | > 1000 |
| CO[C@H]1C[C@@H]2CC[C@@H](C)[C@@](O)(O2)C(=O)C(=O)N2CCCC[C@H]2C(=O)O[C@H]([C@H](C)C[C@@H]2CC[C@@H](OC(=O)NCc3cnc(N4CCN(C(=O)CN(C)CC(=O)NCCOCCOCCC(=O)NCCCCn5nc(-c6ccc7oc(N)nc7c6)c6c(N)ncnc65)CC4)nc3)[C@H](OC)C2)C[C@@H](OC)[C@H](C)/C=C(\C)[C@@H](O)[C@@H](OC)C(=O)[C@H](C)C[C@H](C)/C=C/C=C/C=C/1C [Example 104] | > 1000 | ≤ 1 | ≤ 3.16 |
